Source: patent US20260335495A1, “SYNERGISTIC ACTIVITY OF NOVEL COMPOUNDS AGAINST PLANKTONIC AND BIOFILM CELLS OF CLINICALLY RELEVANT PATHOGENS” (priority 2021, published 2026)

Legend:
[1] = test system: 12 test organisms; assay: MBC/MFC and FMCI, planktonic cells, summary over strains; format: cell-based, bacterial and fungal organisms
Protocol: (§1) The MIC was determined by the micro broth dilution method in 96-well plates. […] A 10 μL containing 1×10^5 bacterial cells or 2×10^3 fungal cells were added to each well. The inoculated plates were covered with a lid, sealed with Parafilm, and incubated for 24 h at 37 °C with slight rocking on a tilting platform shaker. After incubation, the optical density at 600 nm (OD 600) of the cultures in each well was measured using an xMark™ Microplate Absorbance Spectrophotometer (Bio-Rad). The MIC was defined as the lowest concentration of antimicrobial compound at which the culture OD600 values was similar to uninoculated control wells. MBCs and MFCs were determined by transferring 100 μL from each well with no apparent growth onto appropriate agar plates, followed by incubation for 24 h at 37 °C.
(§2) The concentrations of antimicrobials used were based on previously determined MIC values. […] Microtiter plates were incubated at 37 °C for 24 h, and the results were analyzed. Each test was performed in duplicate and included a growth control without the addition of any antimicrobials.

[2] = test system: MRSA ON184; assay: MBC/MFC and FMCI, planktonic cells; format: cell-based, methicillin-resistant S. aureus; settings: for MBC/MFC: alone
Protocol: as §1, §2

[3] = test system: C. albicans ON47; assay: MBC/MFC and FMCI, planktonic cells; format: cell-based; settings: for MBC/MFC: alone
Protocol: as §1, with “The MIC was defined as the lowest concentration of antimicrobial compound at which the culture OD600 values was similar to uninoculated control wells.” left out
as §2

[4] = test system: Stenotrophomonas maltophilia ON17; assay: MBC/MFC and FMCI, planktonic cells; format: cell-based; settings: for MBC/MFC: alone
Protocol: as §1, with “The MIC was defined as the lowest concentration of antimicrobial compound at which the culture OD600 values was similar to uninoculated control wells.” left out
as §2

[5] = test system: Pseudomonas aeruginosa SK1; assay: MBC/MFC and FMCI, planktonic cells; format: cell-based; settings: for MBC/MFC: alone
Protocol: as §1, with “The MIC was defined as the lowest concentration of antimicrobial compound at which the culture OD600 values was similar to uninoculated control wells.” left out
as §2

[6] = test system: Candida albicans SK4b; assay: MBC/MFC and FMCI, planktonic cells; format: cell-based; settings: for MBC/MFC: alone
Protocol: as §1, with “The MIC was defined as the lowest concentration of antimicrobial compound at which the culture OD600 values was similar to uninoculated control wells.” left out
as §2

[7] = test system: S. epidermidis SK9; assay: MIC and checkerboard (FICI), planktonic cells; format: cell-based; settings: for MIC: alone, 24 h, 37 °C
Protocol: as §1, §2

[8] = test system: Escherichia coli ON29; assay: MIC and checkerboard (FICI), planktonic cells; format: cell-based; settings: for MIC: alone, 24 h, 37 °C
Protocol: as §1, §2

[9] = test system: C. albicans ON47; assay: MIC and checkerboard (FICI), planktonic cells; format: cell-based; settings: for MIC: alone, 24 h, 37 °C
Protocol: as §1, §2

[10] = test system: Staphylococcus epidermidis ON170; assay: MIC and checkerboard (FICI), planktonic cells; format: cell-based; settings: for MIC: alone, 24 h, 37 °C
Protocol: as §1, §2

[11] = test system: Stenotrophomonas maltophilia ON17; assay: MIC and checkerboard (FICI), planktonic cells; format: cell-based; settings: for MIC: alone, 24 h, 37 °C
Protocol: as §1, §2

[12] = test system: Proteus mirabilis ON153; assay: MIC and checkerboard (FICI), planktonic cells; format: cell-based; settings: for MIC: alone, 24 h, 37 °C
Protocol: as §1, §2

[13] = test system: E. coli SK2; assay: MIC and checkerboard (FICI), planktonic cells; format: cell-based; settings: for MIC: alone, 24 h, 37 °C
Protocol: as §1, §2

[14] = test system: Serratia marcescens SK2; assay: MIC and checkerboard (FICI), planktonic cells; format: cell-based; settings: for MIC: alone, 24 h, 37 °C
Protocol: as §1, §2

[15] = test system: Staphylococcus aureus ON89; assay: MIC and checkerboard (FICI), planktonic cells; format: cell-based; settings: for MIC: alone, 24 h, 37 °C
Protocol: as §1, §2

[16] = test system: Pseudomonas aeruginosa SK1; assay: MIC and checkerboard (FICI), planktonic cells; format: cell-based; settings: for MIC: alone, 24 h, 37 °C
Protocol: as §1, §2

[17] = test system: Candida albicans SK4b; assay: MIC and checkerboard (FICI), planktonic cells; format: cell-based; settings: for MIC: alone, 24 h, 37 °C
Protocol: as §1, §2

[18] = test system: S. epidermidis SK9; assay: MBC/MFC and FMCI, planktonic cells; format: cell-based; settings: for MBC/MFC: alone
Protocol: as §1, §2

[19] = test system: Escherichia coli ON29; assay: MBC/MFC and FMCI, planktonic cells; format: cell-based; settings: for MBC/MFC: alone
Protocol: as §1, §2

[20] = test system: Staphylococcus epidermidis ON170; assay: MBC/MFC and FMCI, planktonic cells; format: cell-based; settings: for MBC/MFC: alone
Protocol: as §1, §2

[21] = test system: Proteus mirabilis ON153; assay: MBC/MFC and FMCI, planktonic cells; format: cell-based; settings: for MBC/MFC: alone
Protocol: as §1, §2

[22] = test system: E. coli SK2; assay: MBC/MFC and FMCI, planktonic cells; format: cell-based; settings: for MBC/MFC: alone
Protocol: as §1, §2

[23] = test system: Serratia marcescens SK2; assay: MBC/MFC and FMCI, planktonic cells; format: cell-based; settings: for MBC/MFC: alone
Protocol: as §1, §2

[24] = test system: Staphylococcus aureus ON89; assay: MBC/MFC and FMCI, planktonic cells; format: cell-based; settings: for MBC/MFC: alone
Protocol: as §1, §2

[25] = test system: MRSA ON184; assay: MIC and checkerboard (FICI), planktonic cells; format: cell-based, methicillin-resistant S. aureus; settings: for MIC: alone, 24 h, 37 °C
Protocol: as §1, §2

## CCO [ET, ethanol]
[1]
  microbicidal activity: broad-spectrum microbicidal activity
[2]; TE + ET in combination
  MBC/MFC in combination: 3.125%
[2]
  MBC/MFC: 25%
[3]; TE + ET in combination
  MBC/MFC in combination: 3.125%
[3]
  MBC/MFC: 6.25%
[4]; TE + ET in combination
  MBC/MFC in combination: 1.6%
[4]
  MBC/MFC: 6.25%
[5]; TE + ET in combination
  MBC/MFC in combination: 6.25%
[5]
  MBC/MFC: 12.5%
[6]; TE + ET in combination
  MBC/MFC in combination: 3.125%
[6]
  MBC/MFC: 6.25%
[7]; TE + ET in combination
  MIC in combination: 0.4%
[7]
  MIC: 6.25%
[8]; TE + ET in combination
  MIC in combination: 3.125%
[8]
  MIC: 12.5%
[9]; TE + ET in combination
  MIC in combination: 0.4%
[9]
  MIC: 6.25%
[10]; TE + ET in combination
  MIC in combination: 0.4%
[10]
  MIC: 3.125%
[11]; TE + ET in combination
  MIC in combination: 0.4%
[11]
  MIC: 6.25%
[12]; TE + ET in combination
  MIC in combination: 1.6%
[12]
  MIC: 6.25%
[13]; TE + ET in combination
  MIC in combination: 6.25%
[13]
  MIC: 12.5%
[14]; TE + ET in combination
  MIC in combination: 3.125%
[14]
  MIC: 6.25%
[15]; TE + ET in combination
  MIC in combination: 0.4%
[15]
  MIC: 6.25%
[16]; TE + ET in combination
  MIC in combination: 3.125%
[16]
  MIC: 3.125%
[17]; TE + ET in combination
  MIC in combination: 1.6%
[17]
  MIC: 6.25%
[18]; TE + ET in combination
  MBC/MFC in combination: 3.125%
[18]
  MBC/MFC: 12.5%
[19]; TE + ET in combination
  MBC/MFC in combination: 6.25%
[19]
  MBC/MFC: 25%
[20]; TE + ET in combination
  MBC/MFC in combination: 1.6%
[20]
  MBC/MFC: 6.25%
[21]; TE + ET in combination
  MBC/MFC in combination: 6.25%
[21]
  MBC/MFC: 12.5%
[22]; TE + ET in combination
  MBC/MFC in combination: 6.25%
[22]
  MBC/MFC: 25%
[23]; TE + ET in combination
  MBC/MFC in combination: 6.25%
[23]
  MBC/MFC: 12.5%
[24]; TE + ET in combination
  MBC/MFC in combination: 3.125%
[24]
  MBC/MFC: 25%
[25]; TE + ET in combination
  MIC in combination: 0.4%
[25]
  MIC: 6.25%

## O=C(O)CN(CCN(CC(=O)O)CC(=O)O)CC(=O)O.[Na].[Na].[Na].[Na] [TE, tetrasodium ethylenediaminetetraacetic acid]
[1]
  microbicidal activity: broad-spectrum microbicidal activity
[2]; TE + CH in combination
  MBC/MFC in combination: 0.125%
[2]; TE + ET in combination
  MBC/MFC in combination: 0.031%
[2]
  MBC/MFC: 2%
[3]; TE + CH in combination
  MBC/MFC in combination: 0.031%
[3]; TE + ET in combination
  MBC/MFC in combination: 0.25%
[3]
  MBC/MFC: 2%
[4]; TE + CH in combination
  MBC/MFC in combination: 0.031%
[4]; TE + ET in combination
  MBC/MFC in combination: 0.125%
[4]
  MBC/MFC: 1%
[5]; TE + CH in combination
  MBC/MFC in combination: 0.031%
[5]; TE + ET in combination
  MBC/MFC in combination: 0.031%
[5]
  MBC/MFC: 1%
[6]; TE + CH in combination
  MBC/MFC in combination: 0.125%
[6]; TE + ET in combination
  MBC/MFC in combination: 0.25%
[6]
  MBC/MFC: 1%
[7]; TE + CH in combination
  MIC in combination: 0.015%
[7]; TE + ET in combination
  MIC in combination: 0.015%
[7]
  MIC: 0.063%
[8]; TE + CH in combination
  MIC in combination: 0.008%
[8]; TE + ET in combination
  MIC in combination: 0.25%
[8]
  MIC: 0.5%
[9]; TE + CH in combination
  MIC in combination: 0.125%
[9]; TE + ET in combination
  MIC in combination: 0.25%
[9]
  MIC: 1%
[10]; TE + CH in combination
  MIC in combination: 0.063%
[10]; TE + ET in combination
  MIC in combination: 0.015%
[10]
  MIC: 0.063%
[11]; TE + CH in combination
  MIC in combination: 0.015%
[11]; TE + ET in combination
  MIC in combination: 0.031%
[11]
  MIC: 0.063%
[12]; TE + CH in combination
  MIC in combination: 0.063%
[12]; TE + ET in combination
  MIC in combination: 0.5%
[12]
  MIC: 1%
[13]; TE + CH in combination
  MIC in combination: 0.008%
[13]; TE + ET in combination
  MIC in combination: 0.015%
[13]
  MIC: 0.5%
[14]; TE + CH in combination
  MIC in combination: 0.063%
[14]; TE + ET in combination
  MIC in combination: 0.5%
[14]
  MIC: 1%
[15]; TE + CH in combination
  MIC in combination: 0.008%
[15]; TE + ET in combination
  MIC in combination: 0.015%
[15]
  MIC: 0.063%
[16]; TE + CH in combination
  MIC in combination: 0.5%
[16]; TE + ET in combination
  MIC in combination: 0.031%
[16]
  MIC: 0.25%
[17]; TE + CH in combination
  MIC in combination: 0.063%
[17]; TE + ET in combination
  MIC in combination: 0.25%
[17]
  MIC: 1%
[18]; TE + CH in combination
  MBC/MFC in combination: 0.008%
[18]; TE + ET in combination
  MBC/MFC in combination: 0.031%
[18]
  MBC/MFC: 0.5%
[19]; TE + CH in combination
  MBC/MFC in combination: 0.008%
[19]; TE + ET in combination
  MBC/MFC in combination: 0.25%
[19]
  MBC/MFC: 1%
[20]; TE + CH in combination
  MBC/MFC in combination: 0.25%
[20]; TE + ET in combination
  MBC/MFC in combination: 0.031%
[20]
  MBC/MFC: 0.5%
[21]; TE + CH in combination
  MBC/MFC in combination: 0.125%
[21]; TE + ET in combination
  MBC/MFC in combination: 0.063%
[21]
  MBC/MFC: 2%
[22]; TE + CH in combination
  MBC/MFC in combination: 0.015%
[22]; TE + ET in combination
  MBC/MFC in combination: 0.25%
[22]
  MBC/MFC: 0.5%
[23]; TE + CH in combination
  MBC/MFC in combination: 0.125%
[23]; TE + ET in combination
  MBC/MFC in combination: 0.25%
[23]
  MBC/MFC: 2%
[24]; TE + CH in combination
  MBC/MFC in combination: 0.008%
[24]; TE + ET in combination
  MBC/MFC in combination: 0.25%
[24]
  MBC/MFC: 1%
[25]; TE + CH in combination
  MIC in combination: 0.008%
[25]; TE + ET in combination
  MIC in combination: 0.015%
[25]
  MIC: 0.063%
